Laboratory results from ChEMBL document CHEMBL1201862, “PubChem BioAssay data set” (2004).
Blank lines part the entries; values can stand above or below the compound they belong to. Activity calls are given as the source filed them.

How the values were obtained:
Protein Wnt-3a = Protein Wnt-3a (Mus musculus, UniProt P27467); assay: Wnt3a-driven reporter signaling inhibition, dose response, selectivity assay for Gli-SUFU antagonist project, Wnt-LIGHT cells, luminescence (AID 651570); assay type: functional; conditions: read-out: IC50_Mean;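 note: Wnt-LIGHT reporter cells stimulated with conditioned medium from Wnt3a-producing cells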
[1] = StAR promoter reporter inhibition counter-screen, dose response, counter-screen for LRH-1 inverse agonist project, cell-based, luminescence, luciferase reporter (AID 651969); assay type: functional
[2] = target: T1, Apoptotic protease-activating factor 1 (Homo sapiens, UniProt O14727); assay: SAR analysis of small molecule Activators of Apaf-1 in a Fluorescent assay.; assay type: functional; conditions: read-out: EC50_Mean;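 note: caspase-3 cleavage of fluorogenic Rh110 DEVD substrate downstream of apoptosome activation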
T1 sequence (O14727 whole entry): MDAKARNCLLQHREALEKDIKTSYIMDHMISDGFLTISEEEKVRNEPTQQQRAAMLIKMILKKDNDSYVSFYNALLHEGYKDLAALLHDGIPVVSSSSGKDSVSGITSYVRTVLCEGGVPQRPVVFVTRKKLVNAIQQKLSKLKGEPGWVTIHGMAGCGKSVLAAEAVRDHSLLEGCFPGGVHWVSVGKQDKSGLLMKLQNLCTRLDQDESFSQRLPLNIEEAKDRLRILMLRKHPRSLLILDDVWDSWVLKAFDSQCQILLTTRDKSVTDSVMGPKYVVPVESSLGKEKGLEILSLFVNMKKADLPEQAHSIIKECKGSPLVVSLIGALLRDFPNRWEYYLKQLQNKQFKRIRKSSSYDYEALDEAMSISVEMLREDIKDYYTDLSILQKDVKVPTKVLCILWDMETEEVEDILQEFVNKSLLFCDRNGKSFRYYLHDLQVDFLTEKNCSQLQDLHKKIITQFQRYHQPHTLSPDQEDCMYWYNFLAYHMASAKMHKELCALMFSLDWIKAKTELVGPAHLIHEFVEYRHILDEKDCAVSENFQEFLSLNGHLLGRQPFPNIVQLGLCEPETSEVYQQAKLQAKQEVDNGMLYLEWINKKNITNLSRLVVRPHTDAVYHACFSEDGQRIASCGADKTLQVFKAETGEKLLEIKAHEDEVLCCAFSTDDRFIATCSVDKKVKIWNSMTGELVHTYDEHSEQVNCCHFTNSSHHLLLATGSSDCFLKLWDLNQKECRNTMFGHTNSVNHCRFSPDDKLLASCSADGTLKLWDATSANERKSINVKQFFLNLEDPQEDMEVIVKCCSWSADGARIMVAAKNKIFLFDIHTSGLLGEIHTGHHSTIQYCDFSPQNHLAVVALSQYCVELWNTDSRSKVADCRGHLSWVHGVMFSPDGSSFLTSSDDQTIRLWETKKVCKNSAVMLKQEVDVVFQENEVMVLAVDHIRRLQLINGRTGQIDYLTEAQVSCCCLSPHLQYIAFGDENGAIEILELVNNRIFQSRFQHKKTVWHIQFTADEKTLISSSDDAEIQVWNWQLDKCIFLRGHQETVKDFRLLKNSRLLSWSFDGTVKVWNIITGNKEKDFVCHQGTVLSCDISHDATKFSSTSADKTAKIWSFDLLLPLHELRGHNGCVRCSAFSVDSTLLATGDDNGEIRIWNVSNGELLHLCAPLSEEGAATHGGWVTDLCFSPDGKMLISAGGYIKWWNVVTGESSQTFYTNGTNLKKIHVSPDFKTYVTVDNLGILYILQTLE

[3] = target: T2, Short transient receptor potential channel 4 (Mus musculus, UniProt Q9QUQ5); assay: mouse TRPC4 channel inhibitors, dose response, cell-based, HEK293 TRPC4/mu-opioid, Fluo-4 calcium (AID 434942); assay type: functional;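 note: potency of inhibitors blocking the TRPC4 calcium response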
T2 sequence (Q9QUQ5 whole entry): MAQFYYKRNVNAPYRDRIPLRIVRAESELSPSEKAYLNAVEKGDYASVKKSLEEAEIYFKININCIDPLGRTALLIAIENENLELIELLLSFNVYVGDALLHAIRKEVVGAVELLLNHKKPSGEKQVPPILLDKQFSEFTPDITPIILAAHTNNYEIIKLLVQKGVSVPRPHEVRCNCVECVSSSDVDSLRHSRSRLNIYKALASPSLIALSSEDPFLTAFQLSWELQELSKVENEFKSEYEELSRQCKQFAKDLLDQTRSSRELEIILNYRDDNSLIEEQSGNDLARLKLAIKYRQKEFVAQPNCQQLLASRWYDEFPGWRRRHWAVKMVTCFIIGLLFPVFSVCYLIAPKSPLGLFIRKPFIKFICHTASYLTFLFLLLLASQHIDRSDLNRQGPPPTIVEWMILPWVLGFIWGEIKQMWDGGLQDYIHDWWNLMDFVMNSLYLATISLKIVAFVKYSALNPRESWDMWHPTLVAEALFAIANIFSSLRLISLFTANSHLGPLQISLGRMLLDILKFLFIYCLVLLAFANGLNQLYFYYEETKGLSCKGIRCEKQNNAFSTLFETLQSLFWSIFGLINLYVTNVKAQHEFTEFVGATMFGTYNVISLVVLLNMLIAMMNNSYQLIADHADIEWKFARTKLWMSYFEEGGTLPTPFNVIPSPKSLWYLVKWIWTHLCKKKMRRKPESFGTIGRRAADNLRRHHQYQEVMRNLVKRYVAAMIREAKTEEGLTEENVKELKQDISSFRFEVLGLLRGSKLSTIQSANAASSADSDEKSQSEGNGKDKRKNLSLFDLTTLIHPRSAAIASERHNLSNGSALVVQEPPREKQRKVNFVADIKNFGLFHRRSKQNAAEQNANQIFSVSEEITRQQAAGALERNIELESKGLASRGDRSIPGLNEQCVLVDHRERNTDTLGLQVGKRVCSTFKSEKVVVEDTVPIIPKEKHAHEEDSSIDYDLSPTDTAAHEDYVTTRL

[4] = target: T3, Corticotropin-releasing factor receptor 2/Corticotropin-releasing factor-binding protein (Homo sapiens, UniProt P24387+Q13324); assay: activators of CRF receptor 2 with binding protein – uHTS hits, confirmation (AID 602473); assay type: functional; conditions: read-out: EC50_Mean
T3 sequence (Q13324 whole entry): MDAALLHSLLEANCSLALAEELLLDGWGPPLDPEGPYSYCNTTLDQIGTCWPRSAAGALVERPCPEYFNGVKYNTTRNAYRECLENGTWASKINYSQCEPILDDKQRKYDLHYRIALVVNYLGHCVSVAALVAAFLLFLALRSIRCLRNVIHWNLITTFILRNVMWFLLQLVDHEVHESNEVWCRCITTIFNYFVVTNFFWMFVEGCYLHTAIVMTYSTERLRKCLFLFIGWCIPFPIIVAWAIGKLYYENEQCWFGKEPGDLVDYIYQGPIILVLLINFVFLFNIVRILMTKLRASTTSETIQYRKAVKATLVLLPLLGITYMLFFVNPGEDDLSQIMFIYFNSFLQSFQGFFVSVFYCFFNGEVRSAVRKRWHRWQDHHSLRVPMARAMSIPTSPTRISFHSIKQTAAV
T3 sequence (P24387 whole entry): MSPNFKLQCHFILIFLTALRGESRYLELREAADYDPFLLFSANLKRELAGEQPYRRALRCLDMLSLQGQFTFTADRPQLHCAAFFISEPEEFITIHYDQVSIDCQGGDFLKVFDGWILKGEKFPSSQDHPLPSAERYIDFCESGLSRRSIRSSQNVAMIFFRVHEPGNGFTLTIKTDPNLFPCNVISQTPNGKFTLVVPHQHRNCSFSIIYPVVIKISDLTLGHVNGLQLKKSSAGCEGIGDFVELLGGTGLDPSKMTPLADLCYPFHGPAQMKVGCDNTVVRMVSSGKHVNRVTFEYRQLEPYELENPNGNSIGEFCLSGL

[5] = target: T3, Corticotropin-releasing factor receptor 2/Corticotropin-releasing factor-binding protein; assay: Dose Response confirmation of uHTS hits for small molecule antagonists of the CRF-binding protein and CRF-R2 receptor complex.; assay type: functional; conditions: read-out: IC50_Mean
[6] = CRF-BP/CRF-R2 complex antagonists, dose response, cell-based, uHTS hits, 384-well (AID 651639); assay type: functional, Homo sapiens; conditions: read-out: IC50_Mean
[7] = NIH-3T3 fibroblast cytotoxicity, dose response, cytotoxicity control, cell-based, fluorescence, Alamar Blue, secondary assay (AID 2327); assay type: functional;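 note: NIH-3T3 mouse fibroblasts cultured with fluconazole at 8 µg/mL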
INS1 = assay: beta cell apoptosis inhibitors, cytokine rescue, dose response, luminescence, retest (AID 449756); assay type: functional, cell-based; conditions: Rattus norvegicus;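 note: cell death triggered by IL-1 beta plus TNF-alpha plus IFN-gamma mixture; protective hits raise ATP signal compared with cytokine alone wells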
[8] = target: T4, DNA repair protein RAD52 homolog (Homo sapiens, UniProt P43351); assay type: functional, biochemical
T4 sequence (P43351 whole entry): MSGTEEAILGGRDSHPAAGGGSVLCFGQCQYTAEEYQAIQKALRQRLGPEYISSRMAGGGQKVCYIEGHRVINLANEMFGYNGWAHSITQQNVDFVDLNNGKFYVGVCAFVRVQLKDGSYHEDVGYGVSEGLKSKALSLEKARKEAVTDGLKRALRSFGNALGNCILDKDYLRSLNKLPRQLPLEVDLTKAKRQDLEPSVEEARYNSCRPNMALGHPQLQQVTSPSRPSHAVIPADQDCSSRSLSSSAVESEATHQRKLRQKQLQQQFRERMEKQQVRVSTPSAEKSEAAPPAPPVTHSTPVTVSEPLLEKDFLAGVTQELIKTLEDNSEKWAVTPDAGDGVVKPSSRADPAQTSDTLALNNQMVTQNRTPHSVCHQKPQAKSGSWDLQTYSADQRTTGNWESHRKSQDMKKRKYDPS

[9] = C. albicans growth with fluconazole, confirmation, fluorescence, retest (AID 2467); assay type: functional, cell-based
[10] = target: T5, Microphthalmia-associated transcription factor (Homo sapiens, UniProt O75030); assay: TRPM1 promoter luciferase signal decrease, dose response, MITF inhibitor project, cell-based, SK-MEL-5, cherry-picked, set 3 (AID 493073); assay type: functional
T5 sequence (O75030 whole entry): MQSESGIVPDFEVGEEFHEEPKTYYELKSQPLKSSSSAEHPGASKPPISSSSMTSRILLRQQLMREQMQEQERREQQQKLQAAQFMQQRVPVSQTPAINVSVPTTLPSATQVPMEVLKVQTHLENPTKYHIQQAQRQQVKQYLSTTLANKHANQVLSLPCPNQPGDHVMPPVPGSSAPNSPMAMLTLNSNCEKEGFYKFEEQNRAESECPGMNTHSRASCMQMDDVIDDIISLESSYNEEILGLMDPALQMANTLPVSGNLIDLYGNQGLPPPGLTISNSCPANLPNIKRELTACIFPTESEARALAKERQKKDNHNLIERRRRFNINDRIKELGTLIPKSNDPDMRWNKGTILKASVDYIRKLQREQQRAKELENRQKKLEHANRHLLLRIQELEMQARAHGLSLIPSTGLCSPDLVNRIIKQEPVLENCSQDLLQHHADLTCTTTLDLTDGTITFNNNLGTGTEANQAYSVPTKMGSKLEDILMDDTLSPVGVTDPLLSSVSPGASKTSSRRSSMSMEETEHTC

[11] = target: Photoreceptor-specific nuclear receptor (Homo sapiens, UniProt Q9Y5X4); assay type: functional, cell-based;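 note: CHO-S cells with Gal4-NCOR and VP16-NR2E3 two-hybrid luciferase reporter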
Sequence of Photoreceptor-specific nuclear receptor (Q9Y5X4 whole entry, the tested form may be a part): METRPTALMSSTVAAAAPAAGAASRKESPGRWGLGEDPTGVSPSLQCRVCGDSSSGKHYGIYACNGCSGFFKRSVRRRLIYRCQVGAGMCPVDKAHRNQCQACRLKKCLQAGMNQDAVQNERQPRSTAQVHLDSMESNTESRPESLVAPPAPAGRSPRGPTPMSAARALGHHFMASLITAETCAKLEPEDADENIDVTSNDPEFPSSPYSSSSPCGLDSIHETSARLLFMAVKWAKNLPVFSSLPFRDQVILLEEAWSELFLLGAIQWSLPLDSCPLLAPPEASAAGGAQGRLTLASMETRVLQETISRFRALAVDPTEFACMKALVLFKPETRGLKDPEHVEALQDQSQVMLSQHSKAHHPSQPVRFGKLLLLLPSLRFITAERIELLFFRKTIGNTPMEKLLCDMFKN

Sequence of Protein Wnt-3a (P27467 whole entry): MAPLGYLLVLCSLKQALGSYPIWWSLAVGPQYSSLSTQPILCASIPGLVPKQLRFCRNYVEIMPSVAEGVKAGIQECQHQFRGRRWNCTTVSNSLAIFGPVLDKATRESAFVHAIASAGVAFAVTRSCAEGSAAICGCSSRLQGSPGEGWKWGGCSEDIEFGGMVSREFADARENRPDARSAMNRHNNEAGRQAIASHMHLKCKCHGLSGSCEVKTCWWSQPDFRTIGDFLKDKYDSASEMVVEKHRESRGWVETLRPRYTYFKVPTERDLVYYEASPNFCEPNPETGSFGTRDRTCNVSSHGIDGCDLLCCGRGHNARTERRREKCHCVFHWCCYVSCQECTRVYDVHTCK

IC50 (Protein Wnt-3a): 3.91 µM (active)
Compound: Cc1nnsc1C(=O)NC1CCCc2c1cnn2-c1ccc(F)cc1F (stereo not given)

EC50 [2]: > 100 µM (inactive)
Compound: Cc1ccc(O)c(NC(=O)C2CC(c3ccc(F)cc3)=NO2)c1 (stereo not given)

IC50 [11]: 4.47 µM (active)
Compound: CCCCOc1ccc(CONS(=O)(=O)c2ccc(NC(C)=O)cc2)cc1Cl

EC50 [4]: > 53 µM (inactive) | IC50 [5]: 3.31 µM (active) | IC50 [6]: > 20 µM (inactive)
Compound: CCOc1ccc(/N=c2\scc(-c3ccc(OC)cc3)n2CCO)cc1

EC50 [2]: > 100 µM (inactive)
Compound: O=C(Nc1nc2ccsc2c(=O)s1)c1cccs1

Further lines, the compound ahead of its results:

Compound: Cc1cccc(NC(=O)CSc2nc(O)c3c[nH]nc3n2)c1C
IC50 [1]: 35.9 µM (inactive)

Compound: Cc1ccc(C(C)(C)C)cc1S(=O)(=O)Nc1nc2ccccc2nc1Cl
EC50 [3]: 6.68 µM (active) | EC50 [4]: 31.4 µM (active) | IC50 [5]: 6.04 µM (active) | IC50 [6]: 12.9 µM (active)

Compound: C(#Cc1ccccc1)C[N+]1(CC#Cc2cccc3ccccc23)CCCC1
EC50 [7]: > 150 µM (inconclusive) | AC50 (INS1): 6.44 µM (active) | AC50 [8]: 15.2 µM (active) | IC50 (Protein Wnt-3a): 5.07 µM (active) | EC50 [9]: > 38 µM (not active) | AC50 [10]: 6.21 µM (active)

Compound: CCCCCCCCn1c(=O)c(C(=O)OC)c(N)c2ccccc21
AC50 (INS1): 5.55 µM (active) | IC50 [11]: 6.4 µM (active)
